This is an account of results in patent US20180153830A1, “SELECTIVE INHIBITORS OF UNDIFFERENTIATED CELLS” (Yissum Research Development Company of the Hebrew …, priority 2012, published 2018).

Type in all cases: cell-based
In assay [1] the test system is BJ-iPS28 induced pluripotent stem cells. In words: CellTiter-Glo luminescent cell viability screen, BJ-iPS28. Conditions: Homo sapiens; for EC50: 24 h; for inhibition at 20 µM: pluripotent stem cells. How it is done:
5,000 CSES2 cells were plated in 50 μl per well of mTeSR1 medium into black 384-well clear-bottom plates (Falcon BD) pre-coated with Matrigel™ using WellMate cell dispenser (Matrix, Hudson, N.H.). 24 hours after plating, medium was replaced with 25 μl of fresh medium and 25 μl of 40 μM compound medium solutions in 1% DMSO from the intermediate compound dilution plates. The plates were incubated at 37° C., in a 5% CO2 atmosphere, for the entire duration of the screen, apart from the time required for liquid handling. Cell viability was determined 24 hours after compound treatment using CellTiter-Glo® luminescent cell viability assay kits. 50 μl of CellTiter-Glo® reagent was added to each well of the assay plates and fully mixed. After incubation at room temperature for 15 minutes, 25 μl of liquid was transferred from each well into a white opaque-bottom 384-well plate (PerkinElmer), and luminescence was measured using an EnVision® plate reader (PerkinElmer). 16 neutral control wells (0.5% DMSO) and 8 positive control wells (5 μM amsacrine hydrochloride were used to normalize the compound effect. All liquid transfer steps were handled with a Biomek® FXP Laboratory Automation Workstation (Beckman Coulter, Fullerton, Calif.) and Muitidrop Combi liquid dispenser (Thermo Fisher, Waltham, Mass.). An Assay Analyzer (Genedata, Basel, Switzerland) was used for data pattern correction and calculation. The Spotfire software (Spotfire, Somerville, Mass.) was used for data illustration.
696 confirmed hits from the confirmation screen were tested for profiling in a panel of 13 different cell types, using the same screening protocol described above (except in the case of embryonic stem cell-derived neural stem cells (NSCs) and mesenchymal stem cells (MSCs), for which the protocol is described below). As discussed below, compounds were tested either in dose-dependent multiple concentration manner or in single concentration manner. CSES2 and CSES2-SO2/3 cell lines and the early endodermal progenitors derived from this cell line (CSES2-SO2/3-differentiated) were screened at 8 concentrations ranging from 50 μM to 23 nM with 1:3 serial dilution steps. […] Cardiomyocytes were screened in one concentration of 20 μM. HeLa and NTERA-2 cell lines were screened in duplicates of 20 μM. Kelly and Huh-7 were screened in triplicates of 20 μM. Hepatocytes were screened in duplicates of 20 μM in the original 96-well plates in which the cells arrived (40,000 cells per well, in 160 μl medium, the volumes of all reagents involved were adjusted accordingly). MSCs and NSCs were screened in duplicates of 12.5 μM.
The raw intensity data for each well were background-corrected by subtraction of the median intensities across all positive control wells on the same plate, and used to calculate the inhibitory effect of each compound per cell line. A Genedata Assay Analyzer and Condoseo were used for data pattern correction, calculation and IC50 curve fitting. A Z′ factor was determined for each plate.
The effect of the selected compounds on human iPS cells was then determined. […]

The subject of assay [2] is ES-derived neural stem cells. Briefly: CellTiter-Glo counter-screen, neural stem cells. Conditions: Homo sapiens, Neural stem cell.
The subject of assay [3] is ES-derived mesenchymal stem cells. In words: CellTiter-Glo counter-screen, mesenchymal stem cells. Conditions: Homo sapiens, at 20 μM (table title).
For assay [4], the system named is iPS-derived cardiomyocytes. In words: CellTiter-Glo counter-screen, cardiomyocytes. As to conditions: Homo sapiens, Cardiomyocyte. The protocol:
Human induced pluripotent stem cell-derived cardiomyocytes were obtained from Cellular Dynamics International (Madison, Wis.), and handled according to the manufacturer's instructions;
(§1) 696 confirmed hits from the confirmation screen were tested for profiling in a panel of 13 different cell types, using the same screening protocol described above (except in the case of embryonic stem cell-derived neural stem cells (NSCs) and mesenchymal stem cells (MSCs), for which the protocol is described below). As discussed below, compounds were tested either in dose-dependent multiple concentration manner or in single concentration manner. CSES2 and CSES2-SO2/3 cell lines and the early endodermal progenitors derived from this cell line (CSES2-SO2/3-differentiated) were screened at 8 concentrations ranging from 50 μM to 23 nM with 1:3 serial dilution steps. BJ-iPS28 cell line and the BJ fibroblasts from which it was derived were screened at 6 concentrations ranging from 50 μM to 200 nM with 1:3 serial dilution steps. Cardiomyocytes were screened in one concentration of 20 μM. HeLa and NTERA-2 cell lines were screened in duplicates of 20 μM. Kelly and Huh-7 were screened in triplicates of 20 μM. Hepatocytes were screened in duplicates of 20 μM in the original 96-well plates in which the cells arrived (40,000 cells per well, in 160 μl medium, the volumes of all reagents involved were adjusted accordingly). MSCs and NSCs were screened in duplicates of 12.5 μM.
(§2) In order to identify highly-selective cytotoxic inhibitors of hPSCs, the 696 cytotoxic inhibitors of hPSCs identified as described in Example 1 were counter-screened as described in the Materials and Methods section against other cell types, representative of all germ layers and developmental stages. Importantly, many of these cell types were differentiated from human ES or iPS cells. The screened cell types included ES-derived neural stem cells (NSCs), ES-derived mesenchymal stem cells (MSCs), ES-derived endodermal progenitor cells, ES-derived hepatocytes, iPS-derived cardiomyocytes, iPS-derived fibroblasts of origin (BJ fibroblasts), and three cancer cell lines: neuroblastoma (Kelly), cervical cancer (HeLa) and hepatocarcinoma (Huh7). The cell types and their relationship to stem cells are depicted schematically in FIG. 14.

Another assay has as its system Huh7 cells. Briefly: CellTiter-Glo counter-screen, Huh7. As to conditions: Homo sapiens, Huh-7, cancer cells. How it is done:
The hepatocarcinoma cell line Huh-7 was cultured in a DMEM/F12 (1:1) medium, supplemented with 10% FBS, penicillin (50 U/ml) and streptomycin (50 μg/ml).
as §1, §2

For assay [5], the system named is neuroblastoma (Kelly) cells. Briefly: CellTiter-Glo counter-screen, Kelly. As to conditions: Homo sapiens, cancer cells. How it is done:
The neuroblastoma cell line Kelly was cultured in RPMI-1640 medium, supplemented with 15% fetal bovine serum (FBS), penicillin (50 U/ml) and streptomycin (50 μg/ml).
as §1, §2

For assay [6], the system named is human embryonic stem cells. In words: Oleic acid rescue assay. Conditions: 20 μM PluriSIn (2 μM amsacrine); up to 100 μM BSA-OA. How it is done:
Human embryonic stem cells were cultured without feeder cells in CELLSTAR® 24-well tissue culture plates (Greiner Bio-One) pre-coated with Matrigel™, using mTeSR1 defined medium. […] After 24 hours, the cells were subjected to microscopy imaging and to cell viability measurements.
In order to further investigate the effect of SCD activity on hPSC viability, the ability of exogenous supplementation of oleic acid (the direct product of SCD1) to rescue cells from PluriSIn-induced apoptosis was further studied, using procedures described in the Materials and Methods section. Cells were exposed to PluriSn #1 in the presence of increasing concentrations of BSA-conjugated oleic acid (BSA-OA).
For comparison, cells were exposed to 20 μM of PluriSIn #1, #2, #3 and #6 in the presence of 100 μM BSA-OA.

Structures are written as SMILES. Entries after “also recorded” stand apart in the source; their conditions may differ.

With `CCCCCC(=O)NNc1ccc(Cl)cc1` [PluriSIn #10], the EC50 in assay [1] stood at 2420 nM. Moreover, the inhibition at 20 µM in assay [1] came to 87.4%; in assay [4], 12.6%; in the assay on Huh7 cells it was 9.3%; in assay [5], 5.7%. The inhibition at 12.5 µM in assay [2] worked out at 23.7%; in assay [3] it was 3.9%.
Molecule `O=C(NCCc1ccc(O)cc1)c1ccc(N2CCCCC2)cc1` [PluriSIn #4] gave a 50% effective concentration (EC50) in assay [1] of 750 nM. The inhibition at 20 µM turned out to be 74.8% in assay [1], 14.1% in assay [4], 12.1% in the assay with Huh7 cells and 9.4% in assay [5]. Further, the figures for the inhibition at 12.5 µM in assay [2] and in assay [3] were 15.5% and -8.1%, respectively.
Take `O=S(=O)(NNc1ccccc1)c1ccc2ccccc2c1` [PluriSIn #5]: it took 1520 nM to reach a half-maximal effect in assay [1] (EC50). Besides, the inhibition at 20 µM was 87.9% in assay [1], 3.1% in assay [4], 3.6% in the assay on Huh7 cells and 0.2% in assay [5]. For the same molecule, the inhibition at 12.5 µM in assay [2] worked out at 60.9%; in assay [3] it was 6.4%. Also, the “protection by BSA-conjugated oleic acid (BSA-OA) against cell death induced by the compound” value in assay [6] was “protected”.
`O=C(NN(C(=O)c1ccccc1)c1ccccc1)c1ccc(Cl)cc1` [PluriSIn #14] had an EC50 in assay [1] of 3480 nM. Further, the inhibition at 20 µM in assay [1] worked out at 81.7%; in assay [4], 3.9%; with Huh7 cells, 11.5%; in assay [5] it was 0%. Further, the inhibition at 12.5 µM was 18.4% in assay [2] and -1.5% in assay [3].
As for `CCOC(=O)CN1CC(=O)/C(=C\NNc2ccccc2)C1=O` [PluriSIn #11], in assay [1], the EC50 was 3120 nM. Also, the inhibition at 20 µM in assay [1] was 90.6%; in assay [4], -5.8%; with Huh7 cells, 7%; in assay [5], 3.3%. For the same molecule, the inhibition at 12.5 µM in assay [2] is 17.2%; in assay [3], 6%.
In assay [1], `O=C(Nc1ccccc1)n1cc(F)c(=O)[nH]c1=O` [PluriSIn #2] registered an EC50 of 6960 nM. Moreover, the inhibition at 20 µM is 56.8% in assay [1], 4.4% in assay [4], -0.2% in the assay on Huh7 cells and 3% in assay [5]. Further, the inhibition at 12.5 µM in assay [2] was 53.6%; in assay [3], -1.4%.
Regarding `Nc1cc(N)cc(COc2ccc(-c3ccccc3)cc2)c1` [PluriSIn #3], a half-maximal effect in assay [1] (EC50) was put at 1680 nM. In addition, the inhibition at 20 µM in assay [1] is 81.1%; in assay [4], -2.9%; in the assay on Huh7 cells, -5.9%; in assay [5], 2.3%. Moreover, the inhibition at 12.5 µM in assay [2] was 90.4%; in assay [3], 3.3%.
As to `CCN(CC)C(=O)C(=O)c1c(-c2ccccc2)[nH]c2c1sc1ccccc12` [PluriSIn #12], in assay [1], the midpoint of the response, the EC50, lay at 5400 nM. Also, the inhibition at 20 µM in assay [1] is 83.4%; in assay [4], -3.3%; in the assay with Huh7 cells, -1%; in assay [5] it was -0.9%. Further, the results for the inhibition at 12.5 µM in assay [2] and in assay [3] were 9.9% and -7.3%, respectively.
Turning to `O=C(NNc1ccccc1)c1ccncc1` [PluriSIn #1, isonicotinic acid N′-phenylhydrazide], in assay [1], the EC50 turned out to be 2390 nM. Moreover, the inhibition at 20 µM in assay [1] was 85.4%; in assay [4], 15%; in the assay on Huh7 cells it was 5.8%; in assay [5] it was -2%. In addition, the inhibition at 12.5 µM in assay [2] was 18.2%; in assay [3] it was -4.9%. For the same molecule, the “protection by BSA-conjugated oleic acid (BSA-OA) against cell death induced by the compound” value in assay [6] is “full rescue; also recorded: protected”.
In assay [1], `C/C(=N\O)NNc1ccc(Cl)cc1` [PluriSIn #9] registered a concentration for a half-maximal effect (EC50) of 3420 nM. For the same molecule, the inhibition at 20 µM in assay [1] amounted to 92.3%; in assay [4], 24.7%; in the assay with Huh7 cells, 10.4%; in assay [5], 6%. Moreover, the inhibition at 12.5 µM in assay [2] is 28.9%; in assay [3] it was -12.6%.
On to `O=C1C=CC=C1/C=C/C(=N\Nc1ccccc1)c1ccccc1` [PluriSIn #13], for which the concentration for a half-maximal effect (EC50) in assay [1] is 1500 nM. Besides, the inhibition at 20 µM in assay [1] was determined as 94.4%; in assay [4] it was 22.9%; in the assay on Huh7 cells it was 11.8%; in assay [5], 17.5%. The inhibition at 12.5 µM in assay [2] is 29.7%; in assay [3], -7.3%.
`CC(=O)Oc1ccc(/C=C/c2ccc3c(c2)CCN3C)cc1` [PluriSIn #7] gave an EC50 in assay [1] of 2130 nM. Also, the inhibition at 20 µM in assay [1] is 89%; in assay [4] it was 6.8%; with Huh7 cells, 11.2%; in assay [5], 26.7%. Further, the figures for the inhibition at 12.5 µM in assay [2] and in assay [3] were 92.8% and 35.8%, respectively.
Take `C(=N\C1CCC(CC2CCCCC2)CC1)/OC1CCOC1` (stereo not drawn) [PluriSIn #15]: in assay [1], the half-maximal effective concentration (EC50) is 3940 nM. The inhibition at 12.5 µM in assay [2] was 70.3%; in assay [3], 12%. The inhibition at 20 µM worked out at 3.8% in assay [4], 22.2% with Huh7 cells and 9.9% in assay [5].
As for `Cc1oc2ccccc2c1/C=N/Nc1ccccc1` [PluriSIn #8], in assay [1], the concentration for a half-maximal effect (EC50) is 1690 nM. In addition, the inhibition at 20 µM in assay [1] was 82.2%; in assay [4], 8.9%; with Huh7 cells, 10.9%; in assay [5], -1%. Also, the inhibition at 12.5 µM was 15% in assay [2] and -33.8% in assay [3].
